Assay results: PubChem BioAssay AID2060335 (Molecular Pharmacology Branch, DTP, NCI, 2025)
pIC50: −log10 of the molar value. Values joined by “and” are separate entries in the source; they are usually repeats but may differ in a detail not shown here. Equal entries are not always repeated.

Test system: DU-145 multicell spheroids with HUVEC/MSC, viability
Experiment: Anticancer human tumor DU-145 cell line growth inhibition [IpAb];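 further: spheroids exposed to agents for seven days before measurement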;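 on viability, T/C: percent of DMSO vehicle control viability so 100% = untreated level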
Conditions: for viability, T/C: stronger effect = lower value
Outline: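 Combinations with ipatasertib or abemaciclib were tested on tumour spheroids holding HUVEC (25%) and MSC (15%) alongside 60% malignant cells. Top concentration was at or near clinical Cmax (10 microM if undefined), descending in half-log steps.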

[1] = curve of first compound, second compound 0.01 µM
[2] = curve of first compound, second compound 0.0316 µM
[3] = curve of first compound, second compound 0.1 µM
[4] = curve of first compound, second compound 0.316 µM
[5] = curve of first compound, second compound 1 µM
[6] = second compound 0.01 µM, first compound 0.0316 µM
[7] = second compound 0.01 µM, first compound 0.1 µM
[8] = second compound 0.0316 µM, first compound 0.0316 µM
[9] = second compound 0.0316 µM, first compound 0.1 µM
[10] = second compound 0.1 µM, first compound 0.000316 µM
[11] = second compound 0.1 µM, first compound 0.001 µM
[12] = second compound 0.1 µM, first compound 0.00316 µM
[13] = second compound 0.1 µM, first compound 0.01 µM
[14] = second compound 0.1 µM, first compound 0.0316 µM
[15] = second compound 0.1 µM, first compound 0.1 µM
[16] = second compound 0.316 µM, first compound 0.000316 µM
[17] = second compound 0.316 µM, first compound 0.001 µM
[18] = second compound 0.316 µM, first compound 0.00316 µM
[19] = second compound 0.316 µM, first compound 0.01 µM
[20] = second compound 0.316 µM, first compound 0.0316 µM
[21] = second compound 0.316 µM, first compound 0.1 µM
[22] = second compound 1 µM, first compound 0.000316 µM
[23] = second compound 1 µM, first compound 0.001 µM
[24] = second compound 1 µM, first compound 0.00316 µM
[25] = second compound 1 µM, first compound 0.01 µM
[26] = second compound 1 µM, first compound 0.0316 µM
[27] = second compound 1 µM, first compound 0.1 µM
[28] = curve of first compound, second compound 3.16 µM
[29] = curve of first compound, second compound 10 µM
[30] = second compound 3.16 µM, first compound 0.0316 µM
[31] = second compound 3.16 µM, first compound 0.1 µM
[32] = second compound 10 µM, first compound 0.0316 µM
[33] = second compound 10 µM, first compound 0.1 µM
[34] = second compound 0.1 µM, first compound 0.316 µM
[35] = second compound 0.1 µM, first compound 1 µM
[36] = second compound 0.1 µM, first compound 3.16 µM
[37] = second compound 0.1 µM, first compound 10 µM
[38] = second compound 0.316 µM, first compound 0.316 µM
[39] = second compound 0.316 µM, first compound 1 µM
[40] = second compound 0.316 µM, first compound 3.16 µM
[41] = second compound 0.316 µM, first compound 10 µM
[42] = second compound 1 µM, first compound 0.316 µM
[43] = second compound 1 µM, first compound 1 µM
[44] = second compound 1 µM, first compound 3.16 µM
[45] = second compound 1 µM, first compound 10 µM

Cn1ncnc1[C@H]1c2n[nH]c(=O)c3cc(F)cc(c23)N[C@@H]1c1ccc(F)cc1 + CCN1CCN(Cc2ccc(Nc3ncc(F)c(-c4cc(F)c5nc(C)n(C(C)C)c5c4)n3)nc2)CC1
pIC50 [1]: < 7.00 | pIC50 [2]: < 7.00 | pIC50 [3]: < 7.00 | pIC50 [4]: < 7.00 | pIC50 [5]: < 7.00 | viability, T/C (second compound 0.01 µM, first compound 0.000316 µM): 99.7% | viability, T/C (second compound 0.01 µM, first compound 0.001 µM): 102% | viability, T/C (second compound 0.01 µM, first compound 0.00316 µM): 96.8% | viability, T/C (second compound 0.01 µM, first compound 0.01 µM): 89% | viability, T/C [6]: 88.5% | viability, T/C [7]: 81.6% | viability, T/C (second compound 0.0316 µM, first compound 0.000316 µM): 94.2% | viability, T/C (second compound 0.0316 µM, first compound 0.001 µM): 95.7% | viability, T/C (second compound 0.0316 µM, first compound 0.00316 µM): 84.5% | viability, T/C (second compound 0.0316 µM, first compound 0.01 µM): 79.1% | viability, T/C [8]: 84.1% | viability, T/C [9]: 77.4% | viability, T/C [10]: 90% | viability, T/C [11]: 84.4% | viability, T/C [12]: 78.3% | viability, T/C [13]: 73.4% | viability, T/C [14]: 82.1% | viability, T/C [15]: 76% | viability, T/C [16]: 81.9% | viability, T/C [17]: 78% | viability, T/C [18]: 75.3% | viability, T/C [19]: 73.3% | viability, T/C [20]: 66.7% | viability, T/C [21]: 64.7% | viability, T/C [22]: 67.9% | viability, T/C [23]: 75.3% | viability, T/C [24]: 63.3% | viability, T/C [25]: 65.8% | viability, T/C [26]: 63.7% | viability, T/C [27]: 61.2%

COc1c(OCCCN2CCOCC2)ccc2c3n(c(=NC(=O)c4cnc(N)nc4)nc12)CCN3
viability, T/C (compound 0.00316 µM): 78.7% and 83.3% | viability, T/C (compound 0.01 µM): 49.7% and 48.7% | viability, T/C (compound 0.0316 µM): 27.3% and 28.9% | viability, T/C (compound 0.1 µM): 15.9% and 14.9% | viability, T/C (compound 0.316 µM): 10.9% and 10.1% | viability, T/C (compound 1 µM): 11% and 11.2% | pIC50 (curve of compound): 8.00 and 8.01

C=CCn1c(=O)c2cnc(Nc3ccc(N4CCN(C)CC4)cc3)nc2n1-c1cccc(C(C)(C)O)n1
viability, T/C (compound 0.0316 µM): 92.5% and 92.3% | viability, T/C (compound 0.1 µM): 59.8% and 56.2% | viability, T/C (compound 0.316 µM): 23.2% and 29.1% | viability, T/C (compound 1 µM): 18.4% and 24.8% | viability, T/C (compound 3.16 µM): 11.1% and 15.6% | viability, T/C (compound 10 µM): 9.63% and 14.2% | pIC50 (curve of compound): 6.87 and 6.89

CCN1CCN(Cc2ccc(Nc3ncc(F)c(-c4cc(F)c5nc(C)n(C(C)C)c5c4)n3)nc2)CC1
viability, T/C (compound 0.01 µM): 97% [middle of 13 runs] | viability, T/C (compound 0.0316 µM): 94% [middle of 13 runs] | viability, T/C (compound 0.1 µM): 84.7% [middle of 13 runs] | viability, T/C (compound 0.316 µM): 74.7% [middle of 13 runs] | viability, T/C (compound 1 µM): 65.3% [middle of 13 runs] | pIC50 (compound alone, run of 06/01/2021): < 6.00

CC(C)n1nc(-c2ccc3oc(N)nc3c2)c2c(N)ncnc21 + CC(C)NCC(C(=O)N1CCN(c2ncnc3c2C(C)CC3O)CC1)c1ccc(Cl)cc1
pIC50 [3]: 9.04 | pIC50 [4]: > 9.50 | pIC50 [5]: > 9.50 | pIC50 [28]: > 9.50 | pIC50 [29]: > 9.50 | viability, T/C [10]: 64.2% | viability, T/C [11]: 48.1% | viability, T/C [12]: 32.4% | viability, T/C [13]: 18.1% | viability, T/C [14]: 12.2% | viability, T/C [15]: 9.34% | viability, T/C [16]: 49.2% | viability, T/C [17]: 32.3% | viability, T/C [18]: 22.9% | viability, T/C [19]: 13.5% | viability, T/C [20]: 9.74% | viability, T/C [21]: 7.89% | viability, T/C [22]: 29% | viability, T/C [23]: 23.1% | viability, T/C [24]: 14% | viability, T/C [25]: 8.57% | viability, T/C [26]: 7.4% | viability, T/C [27]: 6.44% | viability, T/C (second compound 3.16 µM, first compound 0.000316 µM): 18.6% | viability, T/C (second compound 3.16 µM, first compound 0.001 µM): 14.2% | viability, T/C (second compound 3.16 µM, first compound 0.00316 µM): 9.92% | viability, T/C (second compound 3.16 µM, first compound 0.01 µM): 6.7% | viability, T/C [30]: 6.17% | viability, T/C [31]: 5.92% | viability, T/C (second compound 10 µM, first compound 0.000316 µM): 14.1% | viability, T/C (second compound 10 µM, first compound 0.001 µM): 14.2% | viability, T/C (second compound 10 µM, first compound 0.00316 µM): 7.9% | viability, T/C (second compound 10 µM, first compound 0.01 µM): 6.04% | viability, T/C [32]: 5.82% | viability, T/C [33]: 5.09%

C=CCn1c(=O)c2cnc(Nc3ccc(N4CCN(C)CC4)cc3)nc2n1-c1cccc(C(C)(C)O)n1 + CCN1CCN(Cc2ccc(Nc3ncc(F)c(-c4cc(F)c5nc(C)n(C(C)C)c5c4)n3)nc2)CC1
pIC50 [1]: 6.85 | pIC50 [2]: 7.05 | pIC50 [3]: 7.19 | pIC50 [4]: 7.25 | pIC50 [5]: 7.02 | viability, T/C [6]: 85.5% | viability, T/C [7]: 61.3% | viability, T/C (second compound 0.01 µM, first compound 0.316 µM): 21.9% | viability, T/C (second compound 0.01 µM, first compound 1 µM): 17% | viability, T/C (second compound 0.01 µM, first compound 3.16 µM): 10.1% | viability, T/C (second compound 0.01 µM, first compound 10 µM): 9.83% | viability, T/C [8]: 75.3% | viability, T/C [9]: 47.6% | viability, T/C (second compound 0.0316 µM, first compound 0.316 µM): 21.7% | viability, T/C (second compound 0.0316 µM, first compound 1 µM): 16.9% | viability, T/C (second compound 0.0316 µM, first compound 3.16 µM): 10.7% | viability, T/C (second compound 0.0316 µM, first compound 10 µM): 8.6% | viability, T/C [14]: 69.7% | viability, T/C [15]: 37% | viability, T/C [34]: 21.9% | viability, T/C [35]: 16.1% | viability, T/C [36]: 9.64% | viability, T/C [37]: 9.46% | viability, T/C [20]: 58.7% | viability, T/C [21]: 40.9% | viability, T/C [38]: 25.2% | viability, T/C [39]: 14.9% | viability, T/C [40]: 9.9% | viability, T/C [41]: 10.9% | viability, T/C [26]: 57.3% | viability, T/C [27]: 50.5% | viability, T/C [42]: 27.1% | viability, T/C [43]: 14.2% | viability, T/C [44]: 7.82% | viability, T/C [45]: 8.53%

CC1(C)CCC(CN2CCN(c3ccc(C(=O)NS(=O)(=O)c4ccc(NCC5CCOCC5)c([N+](=O)[O-])c4)c(Oc4cnc5[nH]ccc5c4)c3)CC2)=C(c2ccc(Cl)cc2)C1 + CC(C)NCC(C(=O)N1CCN(c2ncnc3c2C(C)CC3O)CC1)c1ccc(Cl)cc1
pIC50 [3]: 5.46 | pIC50 [4]: 6.30 | pIC50 [5]: > 7.50 | pIC50 [28]: > 7.50 | pIC50 [29]: > 7.50 | viability, T/C [14]: 86.7% | viability, T/C [15]: 87.5% | viability, T/C [34]: 78.1% | viability, T/C [35]: 74.9% | viability, T/C [36]: 53.3% | viability, T/C [37]: 11.5% | viability, T/C [20]: 58.1% | viability, T/C [21]: 53.6% | viability, T/C [38]: 50.6% | viability, T/C [39]: 45.2% | viability, T/C [40]: 37% | viability, T/C [41]: 8.7% | viability, T/C [26]: 30.5% | viability, T/C [27]: 29.4% | viability, T/C [42]: 30.9% | viability, T/C [43]: 28.6% | viability, T/C [44]: 27.1% | viability, T/C [45]: 10.4% | viability, T/C [30]: 23.1% | viability, T/C [31]: 20.6% | viability, T/C (second compound 3.16 µM, first compound 0.316 µM): 20.4% | viability, T/C (second compound 3.16 µM, first compound 1 µM): 19.6% | viability, T/C (second compound 3.16 µM, first compound 3.16 µM): 19.9% | viability, T/C (second compound 3.16 µM, first compound 10 µM): 5.88% | viability, T/C [32]: 19.1% | viability, T/C [33]: 19.2% | viability, T/C (second compound 10 µM, first compound 0.316 µM): 18.4% | viability, T/C (second compound 10 µM, first compound 1 µM): 16.9% | viability, T/C (second compound 10 µM, first compound 3.16 µM): 15.9% | viability, T/C (second compound 10 µM, first compound 10 µM): 5.38%
